Columns and labels:
Format in all cases: functional, cell-based
[1] = Cytotoxicity against Homo sapiens (human) MGC7901 cells assessed as cell viability after 72 hr by MTT assay
[2] = Cytotoxicity against Homo sapiens (human) SMMC-7404 cells assessed as cell viability after 72 hr by MTT assay
HeLa = test: Cytotoxicity against Homo sapiens (human) HeLa cells assessed as cell viability after 72 hr by MTT assay

| Compound | IC50 [1] [µM] | IC50 [2] [µM] | IC50 (HeLa) [µM] |
| --- | --- | --- | --- |
| CC(C)CCC[C@@H](C)[C@H]1CC[C@H]2[C@@H]3C/C(=N/O)C4C[C@@H](OS(=O)(=O)[O-])CC[C@]4(C)[C@H]3CC[C@]12C.[Na+] (some centres not stated) | 6.5 | 12.9 | 9.6 |
| CC[C@H](/C=C/[C@@H](C)[C@H]1CC[C@H]2[C@@H]3C/C(=N/O)C4C[C@@H](OS(=O)(=O)[O-])CC[C@]4(C)[C@H]3CC[C@]12C)C(C)C.[Na+] (some centres not stated) | 27.7 | > 100 | 14.3 |
| CC(C)CCC[C@@H](C)[C@H]1CC[C@H]2[C@@H]3C/C(=N/O)C4=C[C@@H](OS(=O)(=O)[O-])CC[C@]4(C)[C@H]3CC[C@]12C.[Na+] | > 100 | 62.2 | 25.3 |
| CC(C)CCC[C@@H](C)[C@H]1CC[C@H]2[C@@H]3C[C@H](OS(=O)(=O)[O-])C4C/C(=N/O)CC[C@]4(C)[C@H]3CC[C@]12C.[Na+] (some centres not stated) | 33.3 | 10.2 | 12.5 |
